Reference: PubChem BioAssay AID248 (DTP/NCI, 2004)
Where “and” joins values, the source holds several entries; their conditions need not be identical. Equal entries are not always repeated. Inconclusive results and toxic doses are left out.

Test system: L1210 leukemia ip in BDF1 mice, survival T/C
Assay: NCI In Vivo Anticancer Drug Screen. Data for tumor model L1210 Leukemia (intraperitoneal) in B6D2F1 (BDF1) mice
Details: endpoint: mean survival time, higher = longer survival
In short: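 Tumor cells were implanted, animals were treated, and survival was followed. The result divides the treated measurement by the vehicle-control measurement.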

[1] = dose: 100.0 mg/kg/injection, schedule: Q01DX009 (ip), vehicle: Klucel (hydroxypropylcellulose) (HPC)
[2] = dose: 100.0 mg/kg/injection, schedule: Q04DX003 (ip), vehicle: Klucel (hydroxypropylcellulose) (HPC)
[3] = dose: 200.0 mg/kg/injection, schedule: Q01DX009 (ip), vehicle: Klucel (hydroxypropylcellulose) (HPC)
[4] = dose: 200.0 mg/kg/injection, schedule: Q04DX003 (ip), vehicle: Klucel (hydroxypropylcellulose) (HPC)
[5] = dose: 400.0 mg/kg/injection, schedule: Q01DX009 (ip), vehicle: Klucel (hydroxypropylcellulose) (HPC)
[6] = dose: 400.0 mg/kg/injection, schedule: Q04DX003 (ip), vehicle: Klucel (hydroxypropylcellulose) (HPC)

COc1cc(-c2nc(-c3ccc(N=Cc4ccc(N(CCOS(C)(=O)=O)CCOS(C)(=O)=O)cc4C)cc3)cs2)cc(OC)c1OC
T/C (dose: 25.0 mg/kg/injection, schedule: Q04DX003 (ip), vehicle: saline with Tween-80): 102 % of control
T/C (dose: 50.0 mg/kg/injection, schedule: Q04DX003 (ip), vehicle: saline with Tween-80): 102 % of control
T/C (dose: 66.0 mg/kg/injection, schedule: Q04DX003 (ip), vehicle: saline with Tween-80): 115 % of control and 120 % of control
T/C (dose: 150.0 mg/kg/injection, schedule: Q04DX003 (ip), vehicle: saline with Tween-80): 96 % of control and 89 % of control
T/C (dose: 200.0 mg/kg/injection, schedule: Q04DX003 (ip), vehicle: saline with Tween-80): 110 % of control

NN1CCN(N)C(=O)C1=O
T/C (dose: 100.0 mg/kg/injection, schedule: Q04DX003 (ip), vehicle: saline): 105 % of control
T/C (dose: 200.0 mg/kg/injection, schedule: Q04DX003 (ip), vehicle: saline): 108 % of control
T/C (dose: 400.0 mg/kg/injection, schedule: Q04DX003 (ip), vehicle: saline): 97 % of control

CCOC(=O)CC1=CCCCC1
T/C [1]: 103 % of control
T/C [2]: 102 % of control
T/C [3]: 107 % of control
T/C [4]: 96 % of control
T/C [5]: 98 % of control
T/C [6]: 86 % of control

Nc1[nH]c(=O)[nH]c(=O)c1N=Nc1ccc(S(=O)(=O)Nc2ncccn2)cc1
T/C (dose: 100.0 mg/kg/injection, schedule: Q01DX001 (ip), vehicle: saline): 94 % of control
T/C (dose: 200.0 mg/kg/injection, schedule: Q01DX001 (ip), vehicle: saline): 98 % of control
T/C (dose: 400.0 mg/kg/injection, schedule: Q01DX001 (ip), vehicle: saline): 96 % of control

S=P(N1CC1)(N1CC1)N1CC1.[Cl-].[Cl-].[NH2-].[NH2-].[Pt+4]
T/C (dose: 1.8 mg/kg/injection, schedule: Q01DX009 (ip), vehicle: saline): 111 % of control and 103 % of control and 101 % of control
T/C (dose: 2.7 mg/kg/injection, schedule: Q01DX009 (ip), vehicle: saline): 111 % of control and 116 % of control
T/C (dose: 3.13 mg/kg/injection, schedule: Q01DX009 (ip), vehicle: Klucel (hydroxypropylcellulose) (HPC)): 150 % of control and 152 % of control
T/C (dose: 4.1 mg/kg/injection, schedule: Q01DX009 (ip), vehicle: saline): 164 % of control [middle of 5 runs]
T/C (dose: 6.25 mg/kg/injection, schedule: Q01DX009 (ip), vehicle: Klucel (hydroxypropylcellulose) (HPC)): 211 % of control and 166 % of control and 227 % of control
T/C (dose: 6.25 mg/kg/injection, schedule: Q01DX009 (ip), vehicle: saline): 233 % of control [middle of 4 runs]
T/C (dose: 9.3 mg/kg/injection, schedule: Q01DX009 (ip), vehicle: saline): 200 % of control and 277 % of control
T/C (dose: 12.5 mg/kg/injection, schedule: Q01DX009 (ip), vehicle: Klucel (hydroxypropylcellulose) (HPC)): 105 % of control and 92 % of control and 91 % of control
T/C (dose: 12.5 mg/kg/injection, schedule: Q01DX009 (ip), vehicle: saline): 98 % of control and 103 % of control

Nc1n[nH]c(=S)s1
T/C (dose: 46.0 mg/kg/injection, schedule: Q03HX032 (ip), vehicle: Klucel (hydroxypropylcellulose) (HPC)): 102 % of control
T/C (dose: 70.0 mg/kg/injection, schedule: Q03HX032 (ip), vehicle: Klucel (hydroxypropylcellulose) (HPC)): 105 % of control
T/C [1]: 95 % of control
T/C (dose: 105.0 mg/kg/injection, schedule: Q03HX032 (ip), vehicle: Klucel (hydroxypropylcellulose) (HPC)): 108 % of control
T/C (dose: 158.0 mg/kg/injection, schedule: Q03HX032 (ip), vehicle: Klucel (hydroxypropylcellulose) (HPC)): 106 % of control
T/C (dose: 183.0 mg/kg/injection, schedule: Q01DX015 (ip), vehicle: Klucel (hydroxypropylcellulose) (HPC)): 108 % of control
T/C [3]: 117 % of control
T/C (dose: 236.0 mg/kg/injection, schedule: Q03HX032 (ip), vehicle: Klucel (hydroxypropylcellulose) (HPC)): 114 % of control
T/C (dose: 264.0 mg/kg/injection, schedule: Q01DX015 (ip), vehicle: Klucel (hydroxypropylcellulose) (HPC)): 115 % of control
T/C (dose: 394.0 mg/kg/injection, schedule: Q01DX015 (ip), vehicle: Klucel (hydroxypropylcellulose) (HPC)): 116 % of control
T/C (dose: 440.0 mg/kg/injection, schedule: Q01DX001 (ip), vehicle: Klucel (hydroxypropylcellulose) (HPC)): 101 % of control
T/C (dose: 670.0 mg/kg/injection, schedule: Q01DX001 (ip), vehicle: Klucel (hydroxypropylcellulose) (HPC)): 94 % of control

CC(=O)CCN1C(=O)c2ccccc2C1=O
T/C [1]: 100 % of control
T/C [2]: 101 % of control
T/C [3]: 104 % of control
T/C [4]: 90 % of control
T/C [5]: 97 % of control
T/C [6]: 96 % of control
